Results: publication PMC6072100, “Exploring the links between peptoid antibacterial activity and toxicity” (MedChemComm, 2017)
Square brackets hold non-standard residues; d marks the D form. Peptide text beside a SMILES is read from it. N(isopentyl)Gly = CC(C)CCNCC(=O)O; Nspe = C[C@H](NCC(=O)O)c1ccccc1; NhArg = N=C(N)NCCCCNCC(=O)O; Nlys = NCCCCNCC(=O)O

Experiments:
[1] = system: Staphylococcus aureus (3R7089 strain Oxford/ATCC9144); assay type: cell-based; conditions: lowest concentration completely inhibiting growth, 37 °C, 16 h; range 2–100 μM
Procedure: (§1) Escherichia coli K-12 wild-type strain (W3110/ATCC27325, F^–, λ^–, rpoS(Am), rph-1, Inv(rrnD-rrnE)), Pseudomonas aeruginosa PA01 (ATCC 15692) Staphylococcus aureus (3R7089 strain Oxford/ATCC9144) and Staphylococcus epidermidis (laboratory strain from clinical isolate) were selected for bacteriological studies as representative Gram-negative (E. coli and P. aeruginosa) and Gram-positive (S. aureus and S. epidermidis) species. Bacterial cultures were prepared by streaking bacterial strains onto LB agar plates with an inoculation loop and incubated overnight at 37 °C. A single colony was selected and placed in 5 mL of Iso-sensitest broth (Oxoid, ThermoScientific) and incubated with shaking for 16–18 h at 37 °C to provide liquid cultures for testing.
(§2) MIC values were obtained according to the protocol described by J. M. Andrews et al.[58] and were conducted in 96-well plates (Sarstedt). Bacteria were grown from overnight cultures in Iso-sensitest broth to an A650nm of 0.07 equivalent to a 0.5 MacFarland standard (240 μM BaCl2 in 0.18 M H2SO4). This culture was diluted ten-fold with Iso-sensitest broth before use. Peptoids were initially dissolved in DMSO (5 mM) and diluted further in Iso-sensitest broth to achieve a concentration range of 4–200 μM using 2-fold serial dilutions. 50 μl of inoculum and 50 μl of peptoid solution were added to each test well (final concentration range of 2–100 μM). Experiments were performed in triplicate. A positive control for bacterial growth contained only the inoculum and Iso-sensitest broth. Other controls contained the inoculum and serial dilutions of ampicillin (from 250 μg mL^–1 to 2 μg mL^–1), serial dilutions of DMSO and the inoculum to confirm no inhibitory effect on bacterial growth, and Iso-sensitest broth alone as a sterile control. […] Quantitative data was attained from absorbance values using a Biotek Synergy H4 plate reader.
(§3) Antibacterial MIC determination
as §1, with “(W3110 / ATCC27325, F-, λ-,” for “(W3110/ATCC27325, F^–, λ^–,”, “Oxford / ATCC9144)” for “Oxford/ATCC9144)”, “°C.” for “°C. A single colony was selected and placed in 5 mL of Iso-sensitest broth (Oxoid, ThermoScientific) and incubated with shaking for 16–18 h at 37 °C to provide liquid cultures for testing.”
(§4) A single colony was selected and placed in 5 mL of Iso-sensitest broth (Oxoid, ThermoScientific) and incubated with shaking for 16-18 h at 37 °C to provide liquid […]
(§5) MIC values were obtained according to the protocol described by J. M. Andrews et al.1 and were conducted in 96-well plates (Sarstedt). Bacteria were grown from overnight cultures in Iso-sensitest broth to an A650nm of 0.07 equivalent to a 0.5 MacFarland standard (240 μM BaCl2 in 0.18 M H2SO4). This culture was diluted ten-fold with Iso-sensitest broth before use. Peptoids were initially dissolved in DMSO (5 mM) and diluted further in Iso-sensitest broth to achieve a concentration range of 4 – 200 µM using 2-fold serial dilutions. 50 μl of inoculum and 50 μl of peptoid solution were added to each test well (final concentration range of 2 – 100 µM). Experiments were performed in triplicate. A positive control for bacterial growth contained only the inoculum and Iso-sensitest broth. Other controls contained the inoculum and serial dilutions of ampicillin (from 250 µg/mL to 2 µg/mL), serial dilutions of DMSO and the inoculum to confirm no inhibitory effect on bacterial growth, and Iso-sensitest broth alone as a sterile control. […]
(§6) growth after incubation at 37 °C for 16 h with shaking. Quantitative data was attained from absorbance values using a Biotek Synergy H4 plate reader.

[2] = system: Pseudomonas aeruginosa PA01 (ATCC 15692); assay type: cell-based; conditions: lowest concentration completely inhibiting growth, 37 °C, 16 h; range 2–100 μM
Procedure: as §1, §2, §3
as §1, with “(W3110 / ATCC27325, F-, λ-,” for “(W3110/ATCC27325, F^–, λ^–,”, “Oxford / ATCC9144)” for “Oxford/ATCC9144)”, “°C.” for “°C. A single colony was selected and placed in 5 mL of Iso-sensitest broth (Oxoid, ThermoScientific) and incubated with shaking for 16–18 h at 37 °C to provide liquid cultures for testing.”
as §4, §5, §6

[3] = system: Escherichia coli K-12 wild-type strain (W3110/ATCC27325); assay type: cell-based; conditions: lowest concentration completely inhibiting growth, 37 °C, 16 h; range 2–100 μM
Procedure: as §1, §2, §3
as §1, with “(W3110 / ATCC27325, F-, λ-,” for “(W3110/ATCC27325, F^–, λ^–,”, “Oxford / ATCC9144)” for “Oxford/ATCC9144)”, “°C.” for “°C. A single colony was selected and placed in 5 mL of Iso-sensitest broth (Oxoid, ThermoScientific) and incubated with shaking for 16–18 h at 37 °C to provide liquid cultures for testing.”
as §4, §5, §6

[4] = Skin cell toxicity assay with HaCaT (alamarBlue); assay type: cell-based, human; conditions: human, HaCaT cells (keratinocytes), ED50 HaCaT
Procedure: The activity of our peptoid library was assessed against both bacterial and mammalian cells to gain a broader understanding of the factors that lead to effective and selective antimicrobial peptoids. We screened for broad-spectrum antibacterial activity against Gram-negative (Escherichia coli and Pseudomonas aeruginosa) and Gram-positive (Staphylococcus aureus and S. epidermidis) bacteria. The toxicity of the library was also assessed against two mammalian cell lines; HaCaT spontaneously transformed aneuploid keratinocytes were employed to model toxicity against human skin cells and HepG2, a cell line derived from a human liver carcinoma, were used as a study on polarised human hepatocytes. Detailed methods for these assays can be found in the ESI. ^‡ […]
Please note – ED50, the median effective dose, was defined as the dose that kills 50% of cells.
Cytotoxicity analyses were performed in 96-well plates (Costar, Fisher Scientific) using alamarBlue® (Invitrogen) for cell viability detection using a modified protocol as described previously. HepG2 or HaCaT cells were subcultured at 37 °C, 5% CO2 in DMEM high glucose supplemented with heat-inactivated foetal bovine sera (FBS, 10%; Biosera Ltd) and penicillin/streptomycin (P/S, 1%). Cells were counted using a Neubauer Improved Haemocytometer. HepG2 cells were seeded 1 day prior to treatment in 96 well plates at a concentration of 2 × 10^5 cells per mL in 100 μL of medium (2 × 10^4 cells per well). Then cells were pre-incubated with the compounds in triplicate in a dilution series in triplicate from 2–100 μM (5 mM stock solutions in DMSO diluted from 100 μM to 3 μM; untreated cells with DMSO as a negative control) in 50 μl of the media for 1 hour. Afterwards, 40 μL were removed from each well before the addition of 90 μL of the media, followed by incubation for 24 hours at 37 °C, 5% CO2. Then, 10 μL of alamarBlue® (Invitrogen) was added to each well before a 2 hour incubation prior to assessing cell viability using a fluorescent plate reader (Biotek; Ex 560 nm/Em 600 nm). All data were measured in triplicate on a minimum of two occasions to ensure a robust data set was collected. The ED50 values were calculated from the dose response results achieved from the serial dilutions. […]
Cells were counted using a Neubauer Improved
Haemocytometer. […]
µM to 3 µM; untreated cells with DMSO as a negative control) in 50 µl of the media for 1 hour.
Afterwards, 40 µL were removed from each well before the addition of 90 µL of the media, followed by incubation for 24 hours at 37 °C, 5% CO2. Then, 10 µL of alamarBlue® (Invitrogen) was added to each well before a 2 hour incubation prior to assessing cell viability using a fluorescent plate reader (Biotek; Ex 560 nm / Em 600 nm). All data was measured in triplicate on a minimum of two occasions to ensure a robust data set was collected. The ED50 values were calculated from the dose response results achieved from the serial dilutions.
Skin Cell Toxicity assay with HaCaT […]
alamarBlue® (Invitrogen) for cell viability detection. HaCaT cells were subcultured at 37 °C, 5% CO2 in DMEM high glucose supplemented with heat-inactivated foetal bovine sera (FBS, 10%; Biosera Ltd) and penicillin/streptomycin (P/S, 1%). Cells were counted using a Neubauer Improved Haemocytometer. HaCaT cells were seeded in the plates 24 hours prior to treatment in 96 well plates at a concentration of 2x10^5 cells/mL in 100 µL of medium (2x10^4 cells/well).
Empty wells were filled with 100 µL PBS. After 24 hours, cells were incubated with the compounds in a dilution series in triplicate from 2 – 100 µM (5 mM stock solutions in DMSO diluted from 100 µM to 3 µM; Amphotericin B was used as a positive control and untreated cells with DMSO as a negative control) in 50 µL of the media for 1 hour. Afterwards, 40 µl was removed from each well, 90 µL of medium was added to each well and the cells incubated for 24 hours at 37 °C, 5% CO2. 10 µL of alamarBlue® (Invitrogen) was added to each well before […]

[5] = system: Staphylococcus epidermidis (laboratory strain from clinical isolate); assay type: cell-based; conditions: lowest concentration completely inhibiting growth, 37 °C, 16 h; range 2–100 μM
Procedure: as §1, §2, §3
as §1, with “(W3110 / ATCC27325, F-, λ-,” for “(W3110/ATCC27325, F^–, λ^–,”, “Oxford / ATCC9144)” for “Oxford/ATCC9144)”, “°C.” for “°C. A single colony was selected and placed in 5 mL of Iso-sensitest broth (Oxoid, ThermoScientific) and incubated with shaking for 16–18 h at 37 °C to provide liquid cultures for testing.”
as §4, §5, §6

SMILES | MIC S. aureus [1] | MIC P. aeruginosa [2] | MIC E. coli [3] | CC50 at 24 h [4] | MIC S. epidermidis [5]
C[C@@H](c1ccccc1)N(CC(N)=O)C(=O)CN(C(=O)CN(CCCCN)C(=O)CN(C(=O)CN(C(=O)CN(CCCCN)C(=O)CN(C(=O)CN(C(=O)CN(CCCCNC(=N)N)C(=O)CN(C(=O)CN(C(=O)CNCCCCN)[C@@H](C)c1ccccc1)[C@@H](C)c1ccccc1)[C@@H](C)c1ccccc1)[C@@H](C)c1ccccc1)[C@@H](C)c1ccccc1)[C@@H](C)c1ccccc1)[C@@H](C)c1ccccc1 [Peptoid 43, (NLysNspeNspe)(NhArgNspeNspe)(NLysNspeNspe)2] (H-[Nlys][Nspe][Nspe][NhArg][Nspe][Nspe][Nlys][Nspe][Nspe][Nlys][Nspe][Nspe]-NH2) | 17 µM | 17 µM | 17 µM | 33 µM | –
C[C@@H](c1ccccc1)N(CC(N)=O)C(=O)CN(C(=O)CN(CCCCN)C(=O)CN(C(=O)CN(C(=O)CN(CCCCN)C(=O)CN(C(=O)CN(C(=O)CN(CCCCNC(=N)N)C(=O)CN(C(=O)CN(C(=O)CNCCCCNC(=N)N)[C@@H](C)c1ccccc1)[C@@H](C)c1ccccc1)[C@@H](C)c1ccccc1)[C@@H](C)c1ccccc1)[C@@H](C)c1ccccc1)[C@@H](C)c1ccccc1)[C@@H](C)c1ccccc1 [Peptoid 42, (NhArgNspeNspe)2(NLysNspeNspe)2] (H-[NhArg][Nspe][Nspe][NhArg][Nspe][Nspe][Nlys][Nspe][Nspe][Nlys][Nspe][Nspe]-NH2) | 17 µM | 17 µM | 17 µM | 15 µM | –
CC(C)CCN(CC(=O)N(CC(N)=O)[C@@H](C)c1ccccc1)C(=O)CN(CCCCNC(=N)N)C(=O)CN(C(=O)CN(CCC(C)C)C(=O)CN(CCCCNC(=N)N)C(=O)CN(C(=O)CN(CCC(C)C)C(=O)CNCCCCNC(=N)N)[C@@H](C)c1ccccc1)[C@@H](C)c1ccccc1 [Peptoid 39, (NhArgNhLeuNspe)3] (H-[NhArg][N(isopentyl)Gly][Nspe][NhArg][N(isopentyl)Gly][Nspe][NhArg][N(isopentyl)Gly][Nspe]-NH2; N-terminus assumed) | 3 µM | 100 µM | – | – | 2 µM
C[C@@H](c1ccccc1)N(CC(N)=O)C(=O)CN(C(=O)CN(CCCCN)C(=O)CN(C(=O)CN(C(=O)CN(CCCCNC(=N)N)C(=O)CN(C(=O)CN(C(=O)CN(CCCCN)C(=O)CN(C(=O)CN(C(=O)CNCCCCNC(=N)N)[C@@H](C)c1ccccc1)[C@@H](C)c1ccccc1)[C@@H](C)c1ccccc1)[C@@H](C)c1ccccc1)[C@@H](C)c1ccccc1)[C@@H](C)c1ccccc1)[C@@H](C)c1ccccc1 [Peptoid 44, [(NhArgNspeNspe)(NLysNspeNspe)]2] (H-[NhArg][Nspe][Nspe][Nlys][Nspe][Nspe][NhArg][Nspe][Nspe][Nlys][Nspe][Nspe]-NH2) | 17 µM | 67 µM | 17 µM | 33 µM | –
CC(C)CCN(CC(=O)N(CC(N)=O)[C@@H](C)c1ccccc1)C(=O)CN(CCCCNC(=N)N)C(=O)CN(C(=O)CN(CCC(C)C)C(=O)CN(CCCCNC(=N)N)C(=O)CN(C(=O)CN(CCC(C)C)C(=O)CN(CCCCNC(=N)N)C(=O)CN(C(=O)CN(CCC(C)C)C(=O)CNCCCCNC(=N)N)[C@@H](C)c1ccccc1)[C@@H](C)c1ccccc1)[C@@H](C)c1ccccc1 [Peptoid 38, (NhArgNhLeuNspe)4] (H-[NhArg][N(isopentyl)Gly][Nspe][NhArg][N(isopentyl)Gly][Nspe][NhArg][N(isopentyl)Gly][Nspe][NhArg][N(isopentyl)Gly][Nspe]-NH2; N-terminus assumed) | 1 µM | 25 µM | 13 µM | – | 2 µM
C[C@@H](c1ccccc1)N(CC(N)=O)C(=O)CN(C(=O)CN(CCCCNC(=N)N)C(=O)CN(C(=O)CN(C(=O)CN(CCCCNC(=N)N)C(=O)CN(C(=O)CN(C(=O)CNCCCCNC(=N)N)[C@@H](C)c1ccccc1)[C@@H](C)c1ccccc1)[C@@H](C)c1ccccc1)[C@@H](C)c1ccccc1)[C@@H](C)c1ccccc1 [Peptoid 35, (NhArgNspeNspe)3] (H-[NhArg][Nspe][Nspe][NhArg][Nspe][Nspe][NhArg][Nspe][Nspe]-NH2; N-terminus assumed) | 2 µM | 50 µM | 6 µM | – | 2 µM
N=C(N)NCCCCNCC(=O)N(CC(=O)N(CC(=O)N(CCCCNC(=N)N)CC(=O)N(CC(=O)N(CC(=O)N(CCCCNC(=N)N)CC(=O)N(CC(=O)N(CC(N)=O)Cc1cccc(F)c1)Cc1cccc(F)c1)Cc1cccc(F)c1)Cc1cccc(F)c1)Cc1cccc(F)c1)Cc1cccc(F)c1 [Peptoid 37, (NhArgNmfbNmfb)3] | 2 µM | 25 µM | 6 µM | – | 1 µM
